Experimental data from US20220354815A1, “OKN-007 AS A THERAPEUTIC AGENT” (Oklahoma Medical Research Foundation, priority 2019, published 2022).

What was measured:
[1] = tested on: Sodl G93A mutant mice; test: ALS disease progression score in Sod1 G93A mutant mice; assay type: in vivo, mouse
Description: (§1) ALS is a debilitating disease that according to the ALS Association affects two per 100,000 people in the USA. There is no cure and the average survival time after diagnosis is three years. In this study, the inventors investigated the impact of treatment with […], an antioxidant, on ALS progression. Female Sodl G93A mutant mice, an established mouse model of ALS, and wildtype (wt) mice were treated with OKN-077 for three months starting at the age of 60 days, before the mice became symptomatic, and compared to age matched untreated controls (both transgenic and wt). Disease progression measured by monitoring disease score on a scale of 1-5 (based on hind limb paralysis and dysfunction) was delayed in the treated mice. All treated mice were at stage 2 at the time of sacrifice at 145 days (end stage disease is ˜160 days), while untreated transgenic controls had progressed to stage ≥2. […] The untreated transgenic control mice had on average 10.7 ±2.1 alpha motor neurons per ventral horn, while the treated transgenic mice had 17.5 ±4.5 alpha motor neurons (a 64% increase). […] These findings indicate that OKN-077 may potentially be considered as a possible therapeutic agent for ALS, and certainly warrants further investigation.

[2] = tested on: Sodl G93A mutant mice; test: Spinal cord histology (NeuN motor neuron counts, microglia, astrocytes) in G93A mice; assay type: in vivo, mouse
Description: as §1

[3] = tested on: Sodl G93A mutant mice; test: MRI (diffusion, perfusion) and MR spectroscopy of spinal cord in G93A mice; assay type: in vivo, mouse
Description: as §1

[4] = tested on: CS99 cells; test: Endometrial cancer in vivo, CS99 cells i.p. in athymic nude mice (survival, MRI tumor volume); design: species or system mouse
Description: CS99 cells were obtained from K. Moxley (OUHSC). 10^6 cells were injected i.p. into Athymic Nude Foxnlnu mice (Envigo) mice. Gd-DTPA (MRI contrast agent; administered i.v. via a tail-vein-catheter) was used to detect tumors. OKN-077 was administered 150 mg/kg daily in drinking water.

[5] = tested on: CD44v6; test: CD44v6 biomarker regulation; conditions: biomarker directly associated with metastasis; stated without data
[6] = tested on: TGF-β1; test: TGF-β1 pathway expression; conditions: gene not directly down-regulated; stated without data
[7] = tested on: orthotopic GBM xenografts; conditions: cited from earlier work
[8] = tested on: normal cells; test: Effects on normal cells; conditions: stated without data
[9] = Towner et al., Translational Oncology 2019
[10] = previous assessment by the inventors

CC(C)(C)/[N+]([O-])=C/c1ccc(S(=O)(=O)[O-])cc1S(=O)(=O)[O-].[Na+].[Na+] [OKN-077, 2,4-Disulfonyl-N-Tert-Butylnitrone, 2,4-disulfonyl α-phenyl tertiary butyl nitrone]
Delay in reaching the score of 2 versus untreated G93A mice ([1]; FIG. 2C): around 14 days
Highest disease score reached ([1]; FIG. 2D, untreated G93A mice reached score 3 around 136 days of age): ≤ 2
Disease progression (disease score based on hind limb paralysis and dysfunction) ([1]; female G93A mice treated three months from age 60 days, vs untreated transgenic controls): delayed
Disease stage at the time of sacrifice ([1]; sacrifice at 145 days, scale of 1-5, all treated mice): 2
Disease onset ([1]; treated vs untreated G93A mice (FIG. 2B)): doesn't delay
Motor neuron loss ([2]; NeuN stained ventral horn, treated vs untreated G93A p=0.0197): prevents
Astrocyte activation ([2]; mouse, in vivo): didn't affect
Alpha motor neurons per ventral horn ([2]; treated transgenic mice, untreated transgenic 10.7 ±2.1): 17.5 ±4.5
Microglia activation ([2]; treated vs untreated G93A mice): decreases
Ramified, non-activated microglia ([2]; treated vs untreated G93A mice, p=0.0026): significantly more
Increase in alpha motor neurons versus untreated transgenic mice ([2]; treated vs untreated transgenic mice): 64%
Astrocyte proliferation ([2]; treatment p=0.23, FIGS. 5B and 5C): doesn't affect
Microglia proliferation (number of Ibal+ cells) ([2]; two-way ANOVA, treatment p=0.0244, FIG. 5A): treatment effect
Myo-inositol (Myo-Ins)/creatine ratio by MRS ([3]; stated for ALS c (non-treated) vs ALS t (treated) mice, FIG. 6C): significant decrease
Spinal cord metabolite myo-inositol ([3]; treated vs untreated): significantly elevated
Apparent diffusion coefficient (ADC) in the lumbar region of the spinal cord ([3]; treated vs untreated, p<0.001): decreased
Relative tissue blood flow in the spinal cord ([3]; treated vs untreated, p<0.01): significantly increase
ADC in the surrounding muscle tissue ([3]; treated vs untreated, p<0.05): increased
Survival of tumor-bearing mice compared to untreated (UT) ([4]; 150 mg/kg daily in drinking water, FIG. 7): significant increase
Tumor size on MR images at 21 days after CS99 cell implantations ([4]; compared to untreated tumors, FIG. 8): consistently small tumors
Tumor volumes compared to UT mice ([4]; ~21 days after cell implantation, p<0.0001, FIG. 9): significantly decrease
CD44v6 regulation [5]: downregulates
TGF-β1 protein expression [6]: decreased
TMZ-Resistant Glioblastoma (GBM) tumor growth [7, 9]: suppresses
Temozolomide (TMZ) sensitivity [7, 9]: increases
Survival in orthotopic GBM xenografts [7, 10]: increasing
Tumor volumes in orthotopic GBM xenografts [7, 10]: decreasing
Adverse effects on normal cells [8]: no adverse effects
